Assay results reported in patent US12570657B2, “Mesylate salts of heterocyclic cytokinins, compositions containing these derivatives and use thereof” (UNIVERZITA PALACKEHO V OLOMOUCI, priority 2020, dated 2026).
Counter-ions that a name gives are not always drawn.

How the values were obtained:
[1] = test system: cytokinin-dependent tobacco callus; experiment: Tobacco callus biotest (stimulation of plant cell division); assay type: cell-based, Nicotiana tabacum L. cv. Wisconsin 38; conditions: for activity (%) [10^−5 mol · l^−1 BAP = 100%]: callus growth at concentration with highest activity, 10^−5 M BAP = 100%; for concentration with highest activity: tobacco callus fresh weight increase, four weeks
Procedure: Stimulation effect of the cytokinin mesylates was tested in tobacco callus biotest using cytokinin dependent tobacco callus. Cytokinin-dependent tobacco callus Nicotiana tabacum L. cv. […] Subcultivation was carried out every three weeks. Fourteen days before the bioassay, the callus tissue was transferred to the media without BAP. Biological activity was determined from the increase in fresh callus weight after four weeks of cultivation. Five replicates were prepared for each cytokinin concentration and the entire test was repeated twice. […] Relative activity of the compound at this concentration was calculated (Tab. 15). The activity obtained for 10^−5 M 6-benzylaminopurine (BAP) was postulated as 100%. The cytokinin bases to be tested were dissolved in dimethylsulfoxide (DMSO) and the solution brought up to 10^−3 M with distilled water. The mesylate salts were dissolved directly in distilled water.

[2] = test system: CEM (T-lymphoblastic leukemia); experiment: In vitro cytotoxicity, Calcein AM assay, CEM; assay type: cell-based; conditions: 3-day Calcein-AM assay
Excerpt: (§1) Because toxic compounds adversely affect cell metabolic processes, many standard cytotoxicity assays are based on measuring the rate of metabolism of various artificial substrates. The resulting product is then quantified, for example, by spectrometry. Assays can be easily modified for use in 96-well plates, A microtiter assay based on the quantification of Calcein AM metabolism was used to evaluate the cytotoxicity of cytokinins, for example meta-topolin, ortho-topolin, kinetin, BAP or its mesylate salts, but also a number of other cytokinin mesylate derivatives according to the invention. The test is widely used in drug screening programs and in chemosensitivity testing. In living cells, Calcein AM is enzymatically hydrolyzed and the accumulation of the resulting calcein is manifested by green fluorescence. […] These cells were maintained in standard DMEM or RPMI medium (Sigma, MO, USA) supplemented with heat-inactivated fetal bovine serum (10%) with 2 mM L-glutamine and penicillin-streptomycin (1%) under standard cell culture conditions (37° C., 5% CO2 in a humid environment) and subcultured two or three times a week using a standard trypsinization procedure. Approximately 10,000 cells in 80 μl of medium were seeded in a 96-well microtiter plate. After 12 hours of incubation, the compounds to be tested were added in 20 μl aliquots. Control cultures were treated with DMSO alone. […] After 72 hours of incubation, Calcein AM solution (Molecular Probes) was added to a final concentration of 1 μg/ml and the cells were incubated for another hour.
(§2) Cytoxicity of compounds was tested on panel of cell lines of different histogenetic and species origin.

[3] = test system: winter wheat leaf segments; experiment: Senescence bioassay: retention of chlorophyll in excised winter wheat leaf tips; assay type: in vivo, Triticum aestivum cv. Hereward; conditions: for activity (%) [10^−4 mol · l^−1 BAP = 100%]: chlorophyll retention at concentration with highest activity, 10^−4 M BAP = 100%; for concentration with highest activity: chlorophyll retention, excised wheat leaf tips, 96 h dark
Procedure: Seeds of winter wheat, Triticum aestivum cv. Hereward, were washed under running water for 24 hours and then sown on vermiculite soaked with Knop's solution. They were placed in a growth chamber at 25° C. with a 16/8 h light/dark period at 50 μmol·m^−2·s^−1. After 7 days, the first leaf was fully developed and the second leaf had started to grow. A tip section of the first leaf, approximately 35 mm long, was removed from 5 seedlings and trimmed slightly to a combined weight of 100 mg. The basal ends of the five leaf tips were placed in the wells of a microtiter polystyrene plate containing 150 μl of each tested compound solution. The entire plate was inserted into a plastic box lined with paper tissues soaked in distilled water to prevent leaf sections from drying out. After 96 h incubation in the dark at 25° C., the leaves were removed and chlorophyll extracted by heating at 80° C. for 10 min in 5 ml of 80% ethanol (v/v). The sample volume was then restored to 5 ml by the addition of 80% ethanol (v/v). The absorbance of the extract was recorded at 665 nm. In addition, chlorophyll extracts from fresh leaves and leaf tips incubated in deionised water were measured. […] Relative activity of the compound at this concentration was calculated (Tab. 3). The activity obtained for 10^−4 M 6-benzylaminopurine (BAP) was postulated as 100%. The values shown are means of five replicates and the whole experiment was repeated twice. The tested cytokinin bases were dissolved in dimethylsulfoxide (DMSO) and the solution brought up to 10^−3 M with distilled water. Cytokinin mesylate salts which are more water-soluble (BAP mesylate, meta-topolin mesylate and kinetin mesylate) could be directly dissolved to form a 10^−3 M solution in distilled water.

[4] = test system: K562 (chronic myeloid leukemia); experiment: In vitro cytotoxicity, Calcein AM assay, K-562; assay type: cell-based; conditions: 3-day Calcein-AM assay
Excerpt: as §1, §2

[5] = test system: MCF-7 (breast adenocarcinoma); experiment: In vitro cytotoxicity, Calcein AM assay, MCF7; assay type: cell-based; conditions: 3-day Calcein-AM assay
Excerpt: as §1, §2

HOS (human osteosarcoma) = experiment: In vitro cytotoxicity, Calcein AM assay, HOS; assay type: cell-based; conditions: 3-day Calcein-AM assay
Excerpt: as §1, §2

[6] = test system: HL-60 (promyelocytic, leukemia); experiment: In vitro cytotoxicity, Calcein AM assay, HL60; assay type: cell-based; conditions: 3-day Calcein-AM assay
Excerpt: as §1, §2

[7] = test system: Spring barley (variety Francin); experiment: Field trial: grain yield and productive tillers of spring barley after foliar spray; assay type: in vivo; conditions: 5 uMol
Procedure: Spring barley (variety Francin) was treated in 2019 at the locality in Olomouc, sprayed with substances—marked BAP (benzylaminopurine), meta-topolin mesylate and BAP mesylate. The seed was 3.5 million germinating seeds, the experiment was established in 5 randomized replicates for each variant, the control was an untreated variant. The experiment was performed according to the GEP (Good Experimental Practice) methodology, the size of individual plots was 10 m^2. The application of the substances was carried out at a rate of 300 l/ha, in the growth phase BBCH 31-33 (beginning of peeling).

[8] = application BBCH 31-33, untreated control = 100

CC(CO)CCNc1ncnc2[nH]cnc12.CS(=O)(=O)O (racemic) [DHZ mesylate, (RS)-4-((9H-Purin Ylamino)-2-Methylbutan-1-ol) Methanesulphonate]
activity (%) [10^−5 mol · l^−1 BAP = 100%] [1]: 78%
concentration with highest activity [1]: 10^−6 mol · l^−1
IC50 [2]: > 167 µM
activity (%) [10^−4 mol · l^−1 BAP = 100%] [3]: 82%
concentration with highest activity [3]: 10^−4 mol · l^−1
IC50 [4]: > 167 µM
IC50 [5]: > 167 µM

CS(=O)(=O)O.Fc1ccc(CNc2ncnc3nc[nH]c23)c(F)c1 [2.4diFBAP mesylate]
activity (%) [10^−4 mol · l^−1 BAP = 100%] [3]: 141%
concentration with highest activity [3]: 10^−5 mol · l^−1

CS(=O)(=O)O.Clc1ccccc1CNc1ncnc2nc[nH]c12 [2ClBAP mesylate, 6-(2-chlorobenzylamino)purine mesylate]
activity (%) [10^−5 mol · l^−1 BAP = 100%] [1]: 97%
IC50 ([2]; mesylate): 112 µM
activity (%) [10^−4 mol · l^−1 BAP = 100%] [3]: 122%
IC50 ([4]; mesylate): 90.4 µM
IC50 (HOS (human osteosarcoma); mesylate): 100 µM
IC50 ([5]; mesylate): 128 µM

CS(=O)(=O)O.Fc1ccccc1CNc1ncnc2nc[nH]c12 [2FBAP mesylate, 6-(2-fluorobenzylamino)purine mesylate]
activity (%) [10^−5 mol · l^−1 BAP = 100%] [1]: 110%
IC50 ([2]; mesylate): 99.5 µM
activity (%) [10^−4 mol · l^−1 BAP = 100%] [3]: 175%
IC50 ([6]; Homo sapiens, HL-60, 72 h): 126 µM
IC50 ([4]; mesylate): 70.7 µM

Fc1ccc(CNc2ncnc3nc[nH]c23)c(F)c1 [2MBAP mesylate]
activity (%) [10^−5 mol · l^−1 BAP = 100%] [1]: 121%
concentration with highest activity [1]: 10^−6 mol · l^−1
activity (%) [10^−4 mol · l^−1 BAP = 100%] [3]: 157%
concentration with highest activity [3]: 10^−4 mol · l^−1

COc1ccccc1CNc1ncnc2nc[nH]c12.CS(=O)(=O)O [2MeOBAP mesylate, 6-(2-methoxybenzylamino)purine mesylate]
activity (%) [10^−5 mol · l^−1 BAP = 100%] [1]: 82%
IC50 ([2]; mesylate): 98.2 µM
activity (%) [10^−4 mol · l^−1 BAP = 100%] [3]: 271%
IC50 ([4]; mesylate): 117 µM
IC50 ([5]; mesylate): > 167 µM

COc1cccc(CNc2ncnc3nc[nH]c23)c1O [2OH3MeOBAP mesylate, 6-(2-hydroxy-3-methoxybenzylamino)purine mesylate]
IC50 ([2]; mesylate): 51 µM
IC50 ([6]; mesylate): 67.8 µM
IC50 ([5]; mesylate): 32.1 µM

COc1cccc(CNc2ncnc3nc[nH]c23)c1O [2OH3MeOBAP, 6-(2-hydroxy-3-methoxybenzylamino)purine]
IC50 ([2]; 72 h): 41.6 µM
IC50 ([6]; Homo sapiens, HL-60, 72 h): 64.3 µM
IC50 ([4]; Homo sapiens, K562, 72 h): > 167 µM
IC50 ([5]; Homo sapiens, MCF7, 72 h): 26.6 µM

CS(=O)(=O)O.Fc1cc(F)cc(CNc2ncnc3nc[nH]c23)c1 [3.5diFBAP mesylate]
activity (%) [10^−4 mol · l^−1 BAP = 100%] [3]: 168%
concentration with highest activity [3]: 10^−5 mol · l^−1

CS(=O)(=O)O.Clc1cccc(CNc2ncnc3nc[nH]c23)c1 [3ClBAP mesylate, 6-(3-chlorobenzylamino)purine mesylate]
activity (%) [10^−5 mol · l^−1 BAP = 100%] [1]: 101%
activity (%) [10^−4 mol · l^−1 BAP = 100%] [3]: 82%

CS(=O)(=O)O.Fc1cccc(CNc2ncnc3nc[nH]c23)c1 [3FBAP mesylate, 6-(3-fluorobenzylamino)purine mesylate]
activity (%) [10^−5 mol · l^−1 BAP = 100%] [1]: 137%
activity (%) [10^−4 mol · l^−1 BAP = 100%] [3]: 210%
IC50 ([4]; mesylate): 136 µM
IC50 ([5]; mesylate): > 167 µM

Clc1ccc(CNc2ncnc3nc[nH]c23)cc1 [4ClBAP]
IC50 [2]: > 167 µM
IC50 [6]: > 167 µM
IC50 [4]: > 167 µM
IC50 (HOS (human osteosarcoma)): > 167 µM
IC50 [5]: > 167 µM

CS(=O)(=O)O.Fc1ccc(CNc2ncnc3nc[nH]c23)cc1 [4FBAP mesylate, 6-(4-fluorobenzylamino)purine mesylate]
activity (%) [10^−5 mol · l^−1 BAP = 100%] [1]: 126%
activity (%) [10^−4 mol · l^−1 BAP = 100%] [3]: 98%

COc1ccc(CNc2ncnc3nc[nH]c23)cc1 [4MeOBAP mesylate, 6-(4-methoxybenzylamino)purine mesylate]
IC50 ([4]; mesylate): 118 µM

Fc1ccc(CNc2ncnc3nc[nH]c23)c(F)c1 [6-(2.4-difluorobenzylamino)purine (2.4diFBAP)]
activity (%) [10^−4 mol · l^−1 BAP = 100%] [3]: 139%
concentration with highest activity [3]: 10^−5 mol · l^−1

Fc1cc(F)cc(CNc2ncnc3nc[nH]c23)c1 [6-(3.5-difluorobenzylamino)purine]
activity (%) [10^−4 mol · l^−1 BAP = 100%] [3]: 156%
concentration with highest activity [3]: 10^−5 mol · l^−1

C/C(=C/CNc1ncnc2nc[nH]c12)CO [Cis-zeatin (cZ), Cis-zeatin]
IC50 [2]: > 167 µM
IC50 [6]: > 167 µM
IC50 (HOS (human osteosarcoma)): > 167 µM
IC50 [5]: > 167 µM

C/C(=C/CNc1ncnc2[nH]cnc12)CO [cZ mesylate, (Z)-4-((9H-Purin Ylamino)-2-Methylbut-2-En-1-ol) Methanesulphonate]
IC50 [2]: > 167 µM
IC50 [5]: > 167 µM

CS(=O)(=O)O.Oc1cccc(CNc2ncnc3[nH]cnc23)c1 [m-topolin mesylate]
Length of plants ([7]; application BBCH 31-33): 83.1 cm
Medium tillers (number) ([7]; application BBCH 31-33): 1.25
Number of spikes per square meter ([7]; application BBCH 31-33): 721.6
SUM of tillers ([7]; application BBCH 31-33): 5.5
Strong tillers (number) ([7]; application BBCH 31-33): 2.45
Weak tillers (number) ([7]; application BBCH 31-33): 1.8
Grain yield (t/ha) at 14% humidity ([7]; application BBCH 31-33, spring barley): 8.01 t/ha
Grain yield, % compared to control [7, 8]: 108.03%
Length of plants, % compared to control [7, 8]: 100.36%
Medium tillers, % compared to control [7, 8]: 59.52%
Number of spikes per square meter, % compared to control [7, 8]: 106.62%
SUM of tillers, % compared to control [7, 8]: 95.65%
Strong tillers, % compared to control [7, 8]: 136.11%
Weak tillers, % compared to control [7, 8]: 97.3%
